According to patent US20050154537A1, “Methods, program products, and systems for single and multi-agent dosing and other related methods” (priority 2003, published 2005):

Tested on: ANC
Experiment: Chemotherapeutic doublet cycle dose modifier (Taxol, Gemzar), ANC marker
Assay type: in vivo
Conditions: ANC of patient on doublet
Excerpt: Gemzar and Taxol are used in this example as dual agents. Table 2 illustrates a method of revising a drug dose in treating a patient with two pharamcologic and non-pharmacological modalities to optimize pharmacologic outcome, e.g., to reduce risk of an adverse drug event while assessing the clinical relevancy and validity of the measured surrogate markers.
Previous Level of Toxicity-Efficacy (PLTE) is a value directly entered such as from a lab report. It is the numerical value of the marker of toxicity or efficacy reported at the previous dose cycle adjustment (evaluated at a specified elapsed time sufficient to capture the nadir of the dose effect). The surrogate marker is selected when the dose modifier is constructed.
Current Level of Toxicity-Efficacy (CLTE) is a value directly entered such as from a lab report. It is the numerical value of the marker of toxicity or efficacy reported with the current dose cycle. The surrogate marker is that value that illustrates the expression of the toxicity or efficacy of the agent on a specific and pre-selected value determined when the dose modifier is constructed. […] If valid, then the value is fully appreciated and the dose modification can be calculated. […]
Projected Marker Agent 1 (Taxol) (PM1) is calculated by a dose modifier. […]
Projected Marker Agent 2 (Gemzar) (PM2) is calculated by a dose modifier. […]

Which results are given for `CC(=O)O[C@H]1C(=O)[C@@]2(C)[C@H]([C@H](OC(=O)c3ccccc3)[C@]3(O)C[C@H](OC(=O)[C@H](O)[C@@H](NC(=O)c4ccccc4)c4ccccc4)C(C)=C1C3(C)C)[C@]1(OC(C)=O)CO[C@@H]1C[C@@H]2O` [Taxol]?
Current Level of Toxicity/CLTEM1 (current cycle total dose Taxol 300, Gemzar 6200, marker 9 days after dose): 1.50; Previous Level of Toxicity/PLTEM1 (previous cycle total dose Taxol 385, Gemzar 7650): 1.00
